In ChEMBL document CHEMBL4000153, “Bioactive Sesquiterpenoid and Polyacetylene Glycosides from Atractylodes lancea” (J Nat Prod, 2016):

Experiments:
HepG2 = test: Hepatoprotective activity against APAP-induced cell injury in human HepG2 cells assessed as survival rate at 10 uM after 48 hrs by MTT assay relative to control; format: functional; settings: HepG2, 48 h, read-out: Survival
BV-2 = test: Antiinflammatory activity in mouse BV2 cells assessed as inhibition of LPS-induced nitric oxide production after 24 hrs by Griess assay; format: functional, cell-based; settings: BV-2, 24 h

IC50 (BV-2)	Compound	viability at 10 µM (HepG2)
–	CC1=CC(=O)C=C(CO)[C@@]12CC[C@@H](C(C)(C)O[C@@H]1O[C@H](CO[C@@H]3OC[C@](O)(CO)[C@H]3O)[C@@H](O)[C@H](O)[C@H]1O)C2	58.2%
11.4 µM	CC1=CC(=O)C=C(CO)[C@@]12CC[C@@H](C(C)(C)O[C@@H]1O[C@H](CO)[C@@H](O)[C@H](O)[C@H]1O)C2	–
–	COC(=O)c1cc(OC)c2c(c1-c1c(CO)cc(OC)c3c1OCO3)OCO2 [BICYCLOL]	52.9%
4.77 µM	COc1cc(/C=C/C(=O)CC(=O)/C=C/c2ccc(O)c(OC)c2)ccc1O [CURCUMIN]	–
